From patent publication US4652553A, “Steroidal glycolipids as host resistance stimulators” (priority 1985, dated 1987)

Tested on: Pseudomonas aeruginosa
Test: In vivo protection of cyclophosphamide-immunocompromised mice against Pseudomonas aeruginosa (LD50, protective index)
Parameters: species or system Pseudomonas aeruginosa (Immunotype 1); CFl female mice
Conditions: Table 3; cyclophosphamide-treated mice; dose not stated in table (initial test dose 40 mg per kg)
Protocol: Groups of 15-20 CFl femal mice (Charles River Breeding, Cambridge, MA) weighing 22-28 gm were injected intraperitoneally (i.p.) with cyclophosphamide (Cytoxan; CY) at 250 mg per kg body weight. One to two hours later they were typically injected again with the test material by the route specified. Four days later, the mice were divided into groups of five, each of which were injected i.p. with a different dilution of a suspension of Pseudomonas aeruginosa (Immunotype 1). The number of survivors was determined periodically and an estimate was made of the number of CFU of Pseudomonas organisms necessary to cause 50% lethality by the cumulative method of L. J. Reed and H. Muench (Am. J. Hygiene 27 (1938) 493-497). A protective index (P.I.) was defined as the LD50 for the mice receiving cyclophosphamide and the test compound divided by the LD50 for the mice recieving cyclophosphamide alone. All control mice were injected with aqueous vehicle in the same route and schedule as the test animals.
All compounds for dosing were suspended in a sterile medium referred to as "aqueous vehicle" which contains 0.9% sodium chloride, 0.5% carboxymethyl cellulose, 0.4% Tween 80, and 0.9% benzyl alcohol unless otherwise stated. Test materials were evaluated via subcutaneous (s.c.), i.p., intramuscular (i.m.), orally (p.o.). and intravenous (i.v.) routes of administration. […]

C[C@H](N)[C@H]1CC[C@H]2[C@@H]3CC=C4C[C@@H](OCCCCCCS[C@@H]5O[C@H](CO)[C@@H](O)[C@H](O)[C@@H]5O)CC[C@]4(C)[C@H]3CC[C@]12C [Example 14, 6-(20S-Amino-pregn-5-en-3β-yloxy)hexyl 1-thio-β-D-mannopyranoside]
Protective Index (log): 4.37 log
